ChEMBL document CHEMBL1201862, “PubChem BioAssay data set” (2004)
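Protocol summary: plate cells (96-well), add compound at 5 concentrations, incubate 48 h, interpolate endpoints linearly. GI50 = concentration required for 50% inhibition of growth.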 The source made the active and inactive calls. No stated cut-off is given here; in the data, active = GI50 up to about 1.1 µM and inactive = higher.

Legend:
Assay in all cases: growth of human tumour cells (NCI), 48 h
786-0 = system: 786-0
A498 = system: A498
A549 = system: A549
ACHN = system: ACHN
BT-549 = system: BT-549
CAKI-1 = system: CAKI-1
CCRF-CEM = system: CCRF-CEM
COLO 205 = system: COLO 205
DU-145 = system: DU-145
EKVX = system: EKVX
HCC 2998 = system: HCC 2998
HCT-116 = system: HCT-116
HCT-15 = system: HCT-15
HL-60 = system: HL-60
HOP-62 = system: HOP-62
HOP-92 = system: HOP-92
HT-29 = system: HT-29
Hs-578T = system: Hs-578T
IGROV-1 = system: IGROV-1
K562 = system: K562
KM12 = system: KM12
LOX IMVI = system: LOX IMVI
M14 = system: M14
MCF7 = system: MCF7
MDA-MB-231 = system: MDA-MB-231
MDA-MB-435 = system: MDA-MB-435
MDA-N = system: MDA-N
MOLT-4 = system: MOLT-4
Malme-3M = system: Malme-3M
NCI-H226 = system: NCI-H226
NCI-H23 = system: NCI-H23
NCI-H460 = system: NCI-H460
NCI-H522 = system: NCI-H522
NCI/ADR-RES = system: NCI/ADR-RES
OVCAR-3 = system: OVCAR-3
OVCAR-4 = system: OVCAR-4
OVCAR-8 = system: OVCAR-8
PC-3 = system: PC-3
RPMI-8226 = system: RPMI-8226
RXF 393 = system: RXF 393
SF-268 = system: SF-268
SF-295 = system: SF-295
SF-539 = system: SF-539
SK-MEL-28 = system: SK-MEL-28
SK-MEL-5 = system: SK-MEL-5
SK-OV-3 = system: SK-OV-3
SN12C = system: SN12C
SNB-19 = system: SNB-19
SR = system: SR
SW-620 = system: SW-620
T47D = system: T47D
TK-10 = system: TK-10
U-251 = system: U-251
UACC-257 = system: UACC-257
UACC-62 = system: UACC-62
UO-31 = system: UO-31
OVCAR-5 = system: OVCAR-5
SK-MEL-2 = system: SK-MEL-2
SNB-75 = system: SNB-75

## Cc1nc(C)c(N2CCN(C(=O)O)CC2)c(O)n1
786-0
  GI50: > 100 µM (inactive)
A498
  GI50: > 100 µM (inactive)
A549
  GI50: > 100 µM (inactive)
ACHN
  GI50: > 100 µM (inactive)
BT-549
  GI50: > 100 µM (inactive)
CAKI-1
  GI50: 1.39 µM (inactive)
CCRF-CEM
  GI50: > 100 µM (inactive)
COLO 205
  GI50: > 100 µM (inactive)
DU-145
  GI50: > 100 µM (inactive)
EKVX
  GI50: > 100 µM (inactive)
HCC 2998
  GI50: > 100 µM (inactive)
HCT-116
  GI50: > 100 µM (inactive)
HCT-15
  GI50: > 100000 nM
HL-60
  GI50: > 100 µM (inactive)
HOP-62
  GI50: > 100 µM (inactive)
HOP-92
  GI50: > 100 µM (inactive)
HT-29
  GI50: > 100 µM (inactive)
Hs-578T
  GI50: > 100 µM (inactive)
IGROV-1
  GI50: > 100 µM (inactive)
K562
  GI50: > 100 µM (inactive)
KM12
  GI50: > 100 µM (inactive)
LOX IMVI
  GI50: > 100 µM (inactive)
M14
  GI50: > 100 µM (inactive)
MCF7
  GI50: > 100 µM (inactive)
MDA-MB-231
  GI50: > 100 µM (inactive)
MDA-MB-435
  GI50: > 100 µM (inactive)
MDA-N
  GI50: > 100 µM (inactive)
MOLT-4
  GI50: > 100 µM (inactive)
Malme-3M
  GI50: > 100 µM (inactive)
NCI-H226
  GI50: > 100 µM (inactive)
NCI-H23
  GI50: > 100 µM (inactive)
NCI-H460
  GI50: > 100 µM (inactive)
NCI-H522
  GI50: > 100 µM (inactive)
NCI/ADR-RES
  GI50: > 100 µM (inactive)
OVCAR-3
  GI50: > 100 µM (inactive)
OVCAR-4
  GI50: > 100 µM (inactive)
OVCAR-8
  GI50: > 100 µM (inactive)
PC-3
  GI50: > 100 µM (inactive)
RPMI-8226
  GI50: > 100 µM (inactive)
RXF 393
  GI50: > 100 µM (inactive)
SF-268
  GI50: > 100 µM (inactive)
SF-295
  GI50: > 100 µM (inactive)
SF-539
  GI50: > 100 µM (inactive)
SK-MEL-28
  GI50: > 100 µM (inactive)
SK-MEL-5
  GI50: > 100 µM (inactive)
SK-OV-3
  GI50: > 100 µM (inactive)
SN12C
  GI50: > 100 µM (inactive)
SNB-19
  GI50: > 100 µM (inactive)
SR
  GI50: > 100 µM (inactive)
SW-620
  GI50: > 100 µM (inactive)
T47D
  GI50: > 100 µM (inactive)
TK-10
  GI50: > 100 µM (inactive)
U-251
  GI50: > 100 µM (inactive)
UACC-257
  GI50: > 100 µM (inactive)
UACC-62
  GI50: > 100 µM (inactive)
UO-31
  GI50: > 100 µM (inactive)

## COc1ccc(-c2nc3c(C(=O)NCCN(C)C)cccc3c3ccccc23)cc1
786-0
  GI50: 2.49 µM (inactive)
A498
  GI50: 2.98 µM (inactive)
A549
  GI50: 3.1 µM (inactive)
ACHN
  GI50: 3.25 µM (inactive)
BT-549
  GI50: 10.5 µM (inactive)
CAKI-1
  GI50: 1.71 µM (inactive)
CCRF-CEM
  GI50: 2.77 µM (inactive)
COLO 205
  GI50: 1.99 µM (inactive)
DU-145
  GI50: 4.65 µM (inactive)
EKVX
  GI50: 6.78 µM (inactive)
HCC 2998
  GI50: 1.95 µM (inactive)
HCT-116
  GI50: 3.46 µM (inactive)
HCT-15
  GI50: 2920 nM
HL-60
  GI50: 2.07 µM (inactive)
HOP-62
  GI50: 3.06 µM (inactive)
HOP-92
  GI50: 3.51 µM (inactive)
HT-29
  GI50: 2.51 µM (inactive)
Hs-578T
  GI50: 5.3 µM (inactive)
IGROV-1
  GI50: 3.47 µM (inactive)
K562
  GI50: 2.06 µM (inactive)
KM12
  GI50: 3.58 µM (inactive)
LOX IMVI
  GI50: 1.5 µM (inactive)
M14
  GI50: 1.98 µM (inactive)
MCF7
  GI50: 2.46 µM (inactive)
MDA-MB-231
  GI50: 3.45 µM (inactive)
MDA-MB-435
  GI50: 2.2 µM (inactive)
MDA-N
  GI50: 2.26 µM (inactive)
MOLT-4
  GI50: 2.07 µM (inactive)
Malme-3M
  GI50: 4.3 µM (inactive)
NCI-H226
  GI50: 5.57 µM (inactive)
NCI-H23
  GI50: 6.07 µM (inactive)
NCI-H460
  GI50: 2.45 µM (inactive)
NCI-H522
  GI50: 2.65 µM (inactive)
NCI/ADR-RES
  GI50: 7.31 µM (inactive)
OVCAR-3
  GI50: 4.57 µM (inactive)
OVCAR-4
  GI50: 2.81 µM (inactive)
OVCAR-5
  GI50: 3.95 µM (inactive)
OVCAR-8
  GI50: 4.4 µM (inactive)
PC-3
  GI50: 3.73 µM (inactive)
SF-268
  GI50: 8.53 µM (inactive)
SF-295
  GI50: 2.18 µM (inactive)
SF-539
  GI50: 2.21 µM (inactive)
SK-MEL-28
  GI50: 1.97 µM (inactive)
SK-MEL-2
  GI50: 5.21 µM (inactive)
SK-MEL-5
  GI50: 1.74 µM (inactive)
SN12C
  GI50: 4.2 µM (inactive)
SNB-19
  GI50: 3.42 µM (inactive)
SNB-75
  GI50: 5.13 µM (inactive)
SR
  GI50: 2.43 µM (inactive)
SW-620
  GI50: 3.62 µM (inactive)
T47D
  GI50: 8.99 µM (inactive)
TK-10
  GI50: 7.67 µM (inactive)
U-251
  GI50: 2.86 µM (inactive)
UACC-257
  GI50: 1.89 µM (inactive)
UACC-62
  GI50: 1.83 µM (inactive)
UO-31
  GI50: 1.16 µM (inactive)
